In US20240158370A1, “CK1 alpha AND DUAL CK1 alpha / GSPT1 DEGRADING COMPOUNDS” (Innovo Therapeutics, Inc., priority 2022, published 2024):

How the values were obtained:
[1] = molecular target: T1, CK1α (Homo sapiens, UniProt P48729+Q96SW2); experiment: HiBiT degradation assay, CK1α, Procedure A; format: cell-based
T1 construct: CSNK1A1-HiBit KI HEK293(LgBit) Cells; host or cells: HEK293(LgBit) knock-in cells
Procedure, shortened: (§1)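 Cells in DMEM + 10% FBS were treated with compound in a ten-point dose response from 10 μM to 0.005 μM (0.1% DMSO) for six hours at 37° C. Lysis with Nano-Glo HiBiT detection reagent followed, with luminescence read. DC50 and Ymin came from a 4-parameter fit.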

[2] = molecular target: GSPT1 (Homo sapiens, UniProt P15170+Q96SW2); experiment: HiBiT degradation assay, GSPT1, Procedure A; format: cell-based; set-up: HiBit-GSPT1 KI HEK293(LgBit) Cells; host or cells: HEK293(LgBit) knock-in cells
Sequence of GSPT1 (P15170 whole entry): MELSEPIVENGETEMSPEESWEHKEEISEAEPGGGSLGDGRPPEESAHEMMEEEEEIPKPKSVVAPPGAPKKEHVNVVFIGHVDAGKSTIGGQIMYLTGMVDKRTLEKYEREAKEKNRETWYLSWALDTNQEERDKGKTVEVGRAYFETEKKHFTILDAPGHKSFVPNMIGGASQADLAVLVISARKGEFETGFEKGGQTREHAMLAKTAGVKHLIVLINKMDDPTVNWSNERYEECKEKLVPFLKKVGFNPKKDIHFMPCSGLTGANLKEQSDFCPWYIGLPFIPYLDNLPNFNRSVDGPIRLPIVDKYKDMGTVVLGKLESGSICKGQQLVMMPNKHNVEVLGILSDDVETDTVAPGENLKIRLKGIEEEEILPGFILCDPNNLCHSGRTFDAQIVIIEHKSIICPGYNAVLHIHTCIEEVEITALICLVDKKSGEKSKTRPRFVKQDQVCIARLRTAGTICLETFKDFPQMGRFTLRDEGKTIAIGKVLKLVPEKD
Sequence of GSPT1 (Q96SW2 whole entry): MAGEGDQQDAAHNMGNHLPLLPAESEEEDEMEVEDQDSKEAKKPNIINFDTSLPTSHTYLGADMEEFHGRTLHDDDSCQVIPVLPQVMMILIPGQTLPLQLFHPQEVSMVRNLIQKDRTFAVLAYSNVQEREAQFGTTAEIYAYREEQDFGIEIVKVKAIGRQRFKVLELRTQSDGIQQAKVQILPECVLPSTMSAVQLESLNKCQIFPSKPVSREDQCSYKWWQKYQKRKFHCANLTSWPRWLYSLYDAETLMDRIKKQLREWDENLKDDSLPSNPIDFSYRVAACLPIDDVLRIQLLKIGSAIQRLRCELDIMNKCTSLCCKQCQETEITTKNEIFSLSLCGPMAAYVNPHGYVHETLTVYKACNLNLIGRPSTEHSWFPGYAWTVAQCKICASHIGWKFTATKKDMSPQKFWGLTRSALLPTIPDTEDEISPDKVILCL
Sequence of GSPT1 (Q16531 whole entry partner): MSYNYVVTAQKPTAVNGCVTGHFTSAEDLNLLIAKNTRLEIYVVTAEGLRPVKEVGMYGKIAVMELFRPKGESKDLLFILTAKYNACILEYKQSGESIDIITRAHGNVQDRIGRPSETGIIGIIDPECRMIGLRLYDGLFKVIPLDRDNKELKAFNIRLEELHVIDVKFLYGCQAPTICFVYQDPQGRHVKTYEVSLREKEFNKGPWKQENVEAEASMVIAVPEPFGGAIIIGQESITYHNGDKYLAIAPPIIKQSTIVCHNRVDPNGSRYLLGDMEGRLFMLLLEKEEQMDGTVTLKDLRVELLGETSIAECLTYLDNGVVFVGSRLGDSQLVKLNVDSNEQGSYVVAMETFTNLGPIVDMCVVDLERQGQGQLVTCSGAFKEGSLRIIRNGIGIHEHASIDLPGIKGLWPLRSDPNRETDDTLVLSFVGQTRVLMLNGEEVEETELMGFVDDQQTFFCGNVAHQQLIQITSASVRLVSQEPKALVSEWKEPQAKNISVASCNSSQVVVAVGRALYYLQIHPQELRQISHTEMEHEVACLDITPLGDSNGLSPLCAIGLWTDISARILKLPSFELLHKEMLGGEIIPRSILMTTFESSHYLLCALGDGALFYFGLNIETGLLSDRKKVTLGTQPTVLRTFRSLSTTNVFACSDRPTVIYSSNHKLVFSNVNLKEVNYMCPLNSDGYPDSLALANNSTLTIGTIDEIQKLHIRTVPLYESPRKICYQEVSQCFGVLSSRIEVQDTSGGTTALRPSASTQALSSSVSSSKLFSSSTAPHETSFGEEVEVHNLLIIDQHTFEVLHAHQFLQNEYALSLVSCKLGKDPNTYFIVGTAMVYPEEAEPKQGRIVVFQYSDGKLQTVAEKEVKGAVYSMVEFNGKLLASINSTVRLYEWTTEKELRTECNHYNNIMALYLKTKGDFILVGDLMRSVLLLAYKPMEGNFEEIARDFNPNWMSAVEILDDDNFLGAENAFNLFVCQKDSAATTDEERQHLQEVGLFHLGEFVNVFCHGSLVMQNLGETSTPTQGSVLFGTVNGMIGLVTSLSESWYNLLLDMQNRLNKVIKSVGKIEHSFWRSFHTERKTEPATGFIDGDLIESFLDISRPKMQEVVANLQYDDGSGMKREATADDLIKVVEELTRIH
Procedure, shortened: as §1

T1 sequence (P48729 whole entry): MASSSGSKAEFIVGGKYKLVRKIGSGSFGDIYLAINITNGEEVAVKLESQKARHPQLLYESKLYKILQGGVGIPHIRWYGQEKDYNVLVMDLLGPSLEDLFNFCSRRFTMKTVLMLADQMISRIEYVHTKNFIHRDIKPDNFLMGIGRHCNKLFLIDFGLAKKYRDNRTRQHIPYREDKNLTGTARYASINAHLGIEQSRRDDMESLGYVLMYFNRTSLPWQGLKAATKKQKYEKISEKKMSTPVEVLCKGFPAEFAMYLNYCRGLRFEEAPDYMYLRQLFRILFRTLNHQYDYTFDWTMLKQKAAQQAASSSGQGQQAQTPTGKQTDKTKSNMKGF
T1 sequence (Q96SW2 whole entry): as the sequence (Q96SW2 whole entry) above
T1 sequence (Q16531 whole entry partner): as the sequence (Q16531 whole entry partner) above

SMILES: Cn1cc(-c2ccc3c(c2)CN(C2CCC(=O)NC2=O)C3=O)nc1C1CCC2(CC1)CC2 (centres unmarked) [Example 534, 3-(5-(1-Methyl-2-(spiro[2.5]octan-6-yl)-1H-imidazol-4-yl)-1-oxoisoindolin-2-yl)piperidine-2,6-dione]
- CK1α Ymin ([1]; six hours): D (D = >10- 25% remaining)
- DC50 ([1]; six hours): < 25 nM
- DC50 ([2]; six hours): ≥ 25 nM
- GSPT1 Ymin ([2]; six hours): F (F = >75-100% remaining)

SMILES: CN1N=CC(c2ccc3c(c2)CN(C2CCC(=O)NC2=O)C3=O)C1c1cnc(C#N)nc1 (centres unmarked) [Example 374]
- CK1α Ymin ([1]; six hours incubation): F (F = >75-100% remaining)
- DC50 ([1]; six hours incubation): ≥ 25 nM
- DC50 ([2]; six hours incubation): ≥ 25 nM
- GSPT1 Ymin ([2]; six hours incubation): F (F = >75-100% remaining)

SMILES: Cc1ccc(F)c(-c2c(-c3ccc4c(c3)CN(C3CCC(=O)NC3=O)C4=O)cnn2C)c1 (centres unmarked) [Example 89]
- CK1α Ymin ([1]; six hours incubation): E (E = >25-75% remaining)
- DC50 ([1]; six hours incubation): < 25 nM
- DC50 ([2]; six hours incubation): ≥ 25 nM
- GSPT1 Ymin ([2]; six hours incubation): F (F = >75-100% remaining)

SMILES: COc1ccccc1-c1c(-c2ccc3c(c2)CN(C2CCC(=O)NC2=O)C3=O)cnn1C (centres unmarked) [Example 96]
- CK1α Ymin ([1]; six hours incubation): E (E = >25-75% remaining)
- DC50 ([1]; six hours incubation): ≥ 25 nM
- DC50 ([2]; six hours incubation): ≥ 25 nM
- GSPT1 Ymin ([2]; six hours incubation): F (F = >75-100% remaining)

SMILES: CC(F)(F)Cn1ncc(-c2ccc3c(c2)CN(C2CCC(=O)NC2=O)C3=O)c1-c1ccccc1 (centres unmarked) [Example 336, 3-(5-(1-(2,2-difluoropropyl)-5-phenyl-1H-pyrazol-4-yl)-1-oxoisoindolin-2-yl)piperidine-2,6-dione]
- CK1α Ymin ([1]; six hours incubation): D (D = >10- 25% remaining)
- DC50 ([1]; six hours incubation): ≥ 25 nM
- DC50 ([2]; six hours incubation): ≥ 25 nM
- GSPT1 Ymin ([2]; six hours incubation): F (F = >75-100% remaining)

SMILES: Cn1cc(-c2ccc3c(c2)CN(C2CCC(=O)NC2=O)C3=O)c(-c2ccccc2)n1 (centres unmarked) [Example 3, 3-(5-(1-Methyl-3-phenyl-1H-pyrazol-4-yl)-1-oxoisoindolin-2-yl) piperidine-2,6-dione]
- CK1α Ymin ([1]; six hours incubation): E (E = >25-75% remaining)
- DC50 ([1]; six hours incubation): < 25 nM
- DC50 ([2]; six hours incubation): ≥ 25 nM
- GSPT1 Ymin ([2]; six hours incubation): F (F = >75-100% remaining)

SMILES: COc1cc(-c2c(-c3ccc4c(c3)CN(C3CCC(=O)NC3=O)C4=O)ncn2C)ccc1Cl (centres unmarked) [Example 351]
- CK1α Ymin ([1]; six hours incubation): D (D = >10- 25% remaining)
- DC50 ([1]; six hours incubation): ≥ 25 nM
- DC50 ([2]; six hours incubation): ≥ 25 nM
- GSPT1 Ymin ([2]; six hours incubation): F (F = >75-100% remaining)

SMILES: Cn1ncc(-c2ccc3c(c2)CN(C2CCC(=O)NC2=O)C3=O)c1-c1ccc(N)cc1 (centres unmarked) [Example 124]
- CK1α Ymin ([1]; six hours incubation): C (C = 0-10% remaining)
- DC50 ([1]; six hours incubation): < 25 nM
- DC50 ([2]; six hours incubation): ≥ 25 nM
- GSPT1 Ymin ([2]; six hours incubation): F (F = >75-100% remaining)

SMILES: Cn1ncc(-c2ccc3c(c2)CN(C2CCC(=O)NC2=O)C3=O)c1-c1ccc(-c2ccncc2)cc1 (centres unmarked) [Example 153]
- CK1α Ymin ([1]; six hours incubation): D (D = >10- 25% remaining)
- DC50 ([1]; six hours incubation): < 25 nM
- DC50 ([2]; six hours incubation): ≥ 25 nM
- GSPT1 Ymin ([2]; six hours incubation): F (F = >75-100% remaining)

SMILES: Cn1cnc(-c2ccc3c(c2)CN(C2CCC(=O)NC2=O)C3=O)c1-c1ccc(F)c(Cl)c1 (centres unmarked) [Example 257]
- CK1α Ymin ([1]; six hours incubation): D (D = >10- 25% remaining)
- DC50 ([1]; six hours incubation): < 25 nM
- DC50 ([2]; six hours incubation): ≥ 25 nM
- GSPT1 Ymin ([2]; six hours incubation): F (F = >75-100% remaining)

SMILES: COc1ccc(F)cc1-c1c(-c2ccc3c(c2)CN(C2CCC(=O)NC2=O)C3=O)ncn1C (centres unmarked) [Example 191]
- CK1α Ymin ([1]; six hours incubation): E (E = >25-75% remaining)
- DC50 ([1]; six hours incubation): < 25 nM
- DC50 ([2]; six hours incubation): < 25 nM
- GSPT1 Ymin ([2]; six hours incubation): E (E = >25-75% remaining)

SMILES: O=C1CCC(N2Cc3cc(-n4cncc4-c4ccccc4)ccc3C2=O)C(=O)N1 (centres unmarked) [Example 607, 3-(1-oxo-5-(5-phenyl-1H-imidazol-1-yl)isoindolin-2-yl)piperidine-2,6-dione]
- CK1α Ymin ([1]; six hours): E (E = >25-75% remaining)
- DC50 ([1]; six hours): ≥ 25 nM
- DC50 ([2]; six hours): ≥ 25 nM
- GSPT1 Ymin ([2]; six hours): F (F = >75-100% remaining)

SMILES: Cn1cnc(-c2ccc3c(c2)CN(C2CCC(=O)NC2=O)C3=O)c1C1CC1 (centres unmarked) [Example 316]
- CK1α Ymin ([1]; six hours incubation): D (D = >10- 25% remaining)
- DC50 ([1]; six hours incubation): < 25 nM
- DC50 ([2]; six hours incubation): < 25 nM
- GSPT1 Ymin ([2]; six hours incubation): F (F = >75-100% remaining)

SMILES: COc1ccsc1-c1c(-c2ccc3c(c2)CN(C2CCC(=O)NC2=O)C3=O)ncn1C (centres unmarked) [Example 508]
- CK1α Ymin ([1]; six hours): D (D = >10- 25% remaining)
- DC50 ([1]; six hours): < 25 nM
- DC50 ([2]; six hours): ≥ 25 nM
- GSPT1 Ymin ([2]; six hours): F (F = >75-100% remaining)

SMILES: Cn1cc(-c2ccc3c(c2)CN(C2CCC(=O)NC2=O)C3=O)nc1-c1cc(F)cc(Cl)c1 (centres unmarked) [Example 586]
- CK1α Ymin ([1]; six hours): C (C = 0-10% remaining)
- DC50 ([1]; six hours): < 25 nM
- DC50 ([2]; six hours): ≥ 25 nM
- GSPT1 Ymin ([2]; six hours): F (F = >75-100% remaining)

SMILES: Cc1cncc(-c2c(-c3ccc4c(c3)CN(C3CCC(=O)NC3=O)C4=O)ncn2C)c1 (centres unmarked) [Example 321]
- CK1α Ymin ([1]; six hours incubation): D (D = >10- 25% remaining)
- DC50 ([1]; six hours incubation): < 25 nM
- DC50 ([2]; six hours incubation): ≥ 25 nM
- GSPT1 Ymin ([2]; six hours incubation): F (F = >75-100% remaining)

SMILES: Cn1ncc(-c2ccc3c(c2)CN(C2CCC(=O)NC2=O)C3=O)c1-c1ccccc1N (centres unmarked) [Example 127]
- CK1α Ymin ([1]; six hours incubation): E (E = >25-75% remaining)
- DC50 ([1]; six hours incubation): < 25 nM
- DC50 ([2]; six hours incubation): ≥ 25 nM
- GSPT1 Ymin ([2]; six hours incubation): F (F = >75-100% remaining)

SMILES: Cc1ccc(-c2c(-c3ccc4c(c3)CN(C3CCC(=O)NC3=O)C4=O)ncn2C)s1 (centres unmarked) [Example 229]
- CK1α Ymin ([1]; six hours incubation): C (C = 0-10% remaining)
- DC50 ([1]; six hours incubation): < 25 nM
- DC50 ([2]; six hours incubation): < 25 nM
- GSPT1 Ymin ([2]; six hours incubation): E (E = >25-75% remaining)

SMILES: Cc1c(-c2c(-c3ccc4c(c3)CN(C3CCC(=O)NC3=O)C4=O)cnn2C)cnn1-c1ccccc1 (centres unmarked) [Example 481]
- CK1α Ymin ([1]; six hours): E (E = >25-75% remaining)
- DC50 ([1]; six hours): ≥ 25 nM
- DC50 ([2]; six hours): < 25 nM
- GSPT1 Ymin ([2]; six hours): F (F = >75-100% remaining)

SMILES: Cn1ncc(-c2ccc3c(c2)CN(C2CCC(=O)NC2=O)C3=O)c1-c1ccc(N2CCOCC2)cc1 (centres unmarked) [Example 62]
- CK1α Ymin ([1]; six hours incubation): D (D = >10- 25% remaining)
- DC50 ([1]; six hours incubation): < 25 nM
- DC50 ([2]; six hours incubation): ≥ 25 nM
- GSPT1 Ymin ([2]; six hours incubation): F (F = >75-100% remaining)

SMILES: Cn1ncc(-c2ccc3c(c2)CN(C2CCC(=O)NC2=O)C3=O)c1-c1ccc(Cl)c(Cl)c1 (centres unmarked) [Example 75]
- CK1α Ymin ([1]; six hours incubation): E (E = >25-75% remaining)
- DC50 ([1]; six hours incubation): ≥ 25 nM
- DC50 ([2]; six hours incubation): ≥ 25 nM
- GSPT1 Ymin ([2]; six hours incubation): F (F = >75-100% remaining)

SMILES: Cn1ncc(-c2ccc3c(c2)CN(C2CCC(=O)NC2=O)C3=O)c1-c1ccc(OC(F)(F)F)cc1 (centres unmarked) [Example 340, 3-(5-(1-methyl-5-(4-(trifluoromethoxy)phenyl)-1H-pyrazol-4-yl)-1-oxoisoindolin-2-yl)piperidine-2,6-dione]
- CK1α Ymin ([1]; six hours incubation): E (E = >25-75% remaining)
- DC50 ([1]; six hours incubation): < 25 nM
- DC50 ([2]; six hours incubation): < 25 nM
- GSPT1 Ymin ([2]; six hours incubation): F (F = >75-100% remaining)

SMILES: Cc1ccccc1-c1nc(-c2ccc3c(c2)CN(C2CCC(=O)NC2=O)C3=O)cn1C (centres unmarked) [Example 571]
- CK1α Ymin ([1]; six hours): C (C = 0-10% remaining)
- DC50 ([1]; six hours): < 25 nM
- DC50 ([2]; six hours): < 25 nM
- GSPT1 Ymin ([2]; six hours): F (F = >75-100% remaining)

SMILES: Cn1cnc(-c2ccc3c(c2)CN(C2CCC(=O)NC2=O)C3=O)c1-c1ccc(OCCCN2CCOCC2)cc1 (centres unmarked) [Example 359]
- CK1α Ymin ([1]; six hours incubation): E (E = >25-75% remaining)
- DC50 ([1]; six hours incubation): < 25 nM
- DC50 ([2]; six hours incubation): ≥ 25 nM
- GSPT1 Ymin ([2]; six hours incubation): F (F = >75-100% remaining)

SMILES: Cn1cnc(-c2ccc3c(c2)CN(C2CCC(=O)NC2=O)C3=O)c1-c1ccc(NC(=O)c2ccccc2)cc1 (centres unmarked) [Example 356]
- CK1α Ymin ([1]; six hours incubation): F (F = >75-100% remaining)
- DC50 ([1]; six hours incubation): ≥ 25 nM
- DC50 ([2]; six hours incubation): ≥ 25 nM
- GSPT1 Ymin ([2]; six hours incubation): F (F = >75-100% remaining)

SMILES: Cc1ccc(-c2c(-c3ccc4c(c3)CN(C3CCC(=O)NC3=O)C4=O)ncn2C)cc1CO (centres unmarked) [Example 252]
- CK1α Ymin ([1]; six hours incubation): D (D = >10- 25% remaining)
- DC50 ([1]; six hours incubation): < 25 nM
- DC50 ([2]; six hours incubation): ≥ 25 nM
- GSPT1 Ymin ([2]; six hours incubation): E (E = >25-75% remaining)

SMILES: COc1ccc(-c2c(-c3ccc4c(c3)CN(C3CCC(=O)NC3=O)C4=O)ncn2C)cc1O (centres unmarked) [Example 253]
- CK1α Ymin ([1]; six hours incubation): C (C = 0-10% remaining)
- DC50 ([1]; six hours incubation): < 25 nM
- DC50 ([2]; six hours incubation): < 25 nM
- GSPT1 Ymin ([2]; six hours incubation): D (D = >10- 25% remaining)

SMILES: Cn1ncc(-c2ccc3c(c2)CN(C2CCC(=O)NC2=O)C3=O)c1-c1ccccc1Cl (centres unmarked) [Example 132]
- CK1α Ymin ([1]; six hours incubation): E (E = >25-75% remaining)
- DC50 ([1]; six hours incubation): < 25 nM
- DC50 ([2]; six hours incubation): ≥ 25 nM
- GSPT1 Ymin ([2]; six hours incubation): F (F = >75-100% remaining)

SMILES: CN(C)C(=O)c1ccc(-c2c(-c3ccc4c(c3)CN(C3CCC(=O)NC3=O)C4=O)cnn2C)cc1 (centres unmarked) [Example 121]
- CK1α Ymin ([1]; six hours incubation): C (C = 0-10% remaining)
- DC50 ([1]; six hours incubation): ≥ 25 nM
- DC50 ([2]; six hours incubation): ≥ 25 nM
- GSPT1 Ymin ([2]; six hours incubation): F (F = >75-100% remaining)
